Results reported in PubChem BioAssay (NCI).
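Protocol summary: plate cells (96-well), add compound at 5 concentrations, incubate 48 h, interpolate endpoints linearly. GI50: concentration for 50% inhibition of growth. TGI is the concentration that stops growth completely.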

Assays:
Assay in all cases: DTP human tumour cell line panel, 48 h
[1] = tested on: SNB-19 CNS
[2] = tested on: HCT-116 colon
[3] = tested on: MDA-MB-435
[4] = tested on: HCT-15 colon
[5] = tested on: TK-10 renal
[6] = tested on: OVCAR-4 ovarian
[7] = tested on: HCC-2998 colon
[8] = tested on: NCI-H460 lung
[9] = tested on: DU-145 prostate
[10] = tested on: MCF7 breast
[11] = tested on: SR leukemia
[12] = tested on: UACC-62 melanoma
[13] = tested on: IGROV1 ovarian
[14] = tested on: SF-295 CNS
[15] = tested on: COLO 205 colon
[16] = tested on: NCI-H226 lung
[17] = tested on: KM12 colon
[18] = tested on: NCI/ADR-RES ovarian
[19] = tested on: CAKI-1 renal
[20] = tested on: MDA-MB-231 breast
[21] = tested on: UACC-257 melanoma
[22] = tested on: 786-0 renal
[23] = tested on: T-47D breast
[24] = tested on: RXF 393 renal
[25] = tested on: HOP-62 NSCLC
[26] = tested on: SW-620 colon
[27] = tested on: MDA-N
[28] = tested on: HS 578T breast
[29] = tested on: MOLT-4 leukemia
[30] = tested on: M14 melanoma
[31] = tested on: SK-OV-3 ovarian
[32] = tested on: OVCAR-3 ovarian
[33] = tested on: NCI-H23 lung
[34] = tested on: LOX IMVI melanoma
[35] = tested on: SF-539 CNS
[36] = tested on: SK-MEL-28 melanoma
[37] = tested on: PC-3 prostate
[38] = tested on: SK-MEL-2 melanoma
[39] = tested on: SK-MEL-5 melanoma
[40] = tested on: A549 NSCLC
[41] = tested on: ACHN renal
[42] = tested on: HOP-92 NSCLC
[43] = tested on: CCRF-CEM leukemia
[44] = tested on: HT29 colon
[45] = tested on: SF-268 CNS
[46] = tested on: OVCAR-8 ovarian
[47] = tested on: HL-60(TB) leukemia
[48] = tested on: OVCAR-5 ovarian
[49] = tested on: A498 renal
[50] = tested on: EKVX NSCLC
[51] = tested on: SN12C renal
[52] = tested on: MALME-3M melanoma
[53] = tested on: K-562 leukemia
[54] = tested on: SNB-75 CNS
[55] = tested on: RPMI-8226 leukemia
[56] = tested on: BT-549 breast
[57] = tested on: UO-31 renal
[58] = tested on: U251 CNS
[59] = tested on: NCI-H522 lung

CC(C)n1c(=O)c2nn3c(=O)n(C(C)C)c(=O)c3nn2c1=O
TGI [1]: > 100 µM
TGI [2]: > 100 µM
TGI [3]: > 100 µM
TGI [4]: > 100 µM
TGI [5]: > 100 µM
TGI [6]: > 100 µM
TGI [7]: > 100 µM
TGI [8]: > 100 µM
TGI [9]: > 100 µM
TGI [10]: > 100 µM
TGI [11]: > 100 µM
TGI [12]: > 100 µM
TGI [13]: > 100 µM
TGI [14]: > 100 µM
TGI [15]: > 100 µM
TGI [16]: > 100 µM
TGI [17]: > 100 µM
TGI [18]: > 100 µM
TGI [19]: > 100 µM
TGI [20]: > 100 µM
TGI [21]: > 100 µM
TGI [22]: > 100 µM
TGI [23]: > 100 µM
TGI [24]: > 100 µM
TGI [25]: > 100 µM
TGI [26]: > 100 µM
TGI [27]: > 100 µM
TGI [28]: > 100 µM
TGI [29]: > 100 µM
TGI [30]: > 100 µM
TGI [31]: > 100 µM
TGI [32]: > 100 µM
TGI [33]: > 100 µM
TGI [34]: > 100 µM
TGI [35]: > 100 µM
TGI [36]: > 100 µM
TGI [37]: > 100 µM
TGI [38]: > 100 µM
TGI [39]: > 100 µM
TGI [40]: > 100 µM
TGI [41]: > 100 µM
TGI [42]: > 100 µM
TGI [43]: > 100 µM
TGI [44]: > 100 µM
TGI [45]: > 100 µM
TGI [46]: > 100 µM
TGI [47]: > 100 µM
TGI [48]: > 100 µM
TGI [49]: > 100 µM
TGI [50]: > 100 µM
TGI [51]: > 100 µM
TGI [52]: > 100 µM

O=C1CC(O)c2c(Cl)sc(Cl)c21 (stereo unspecified)
TGI [1]: 40.2 µM
TGI [53]: > 28.7 µM
TGI [2]: 13.8 µM
TGI [3]: > 47.7 µM
TGI [4]: 11.3 µM
TGI [5]: 30.1 µM
TGI [6]: 54.3 µM
TGI [7]: 46.3 µM
TGI [54]: 29.5 µM
TGI [8]: 52.3 µM
TGI [55]: 59.7 µM
TGI [9]: 54.8 µM
TGI [56]: 29.7 µM
TGI [10]: 30.5 µM
TGI [11]: 20.7 µM
TGI [12]: 31.5 µM
TGI [13]: 22.1 µM
TGI [14]: > 59.3 µM
TGI [15]: 14.6 µM
TGI [16]: 36.6 µM
TGI [17]: > 22.7 µM
TGI [18]: 59.2 µM
TGI [19]: 9.68 µM
TGI [20]: > 61.3 µM
TGI [21]: 27.7 µM
TGI [22]: 11.2 µM
TGI [23]: > 24.2 µM
TGI [24]: 12.2 µM
TGI [25]: 29.4 µM
TGI [26]: 6.5 µM
TGI [27]: 44.2 µM
TGI [29]: > 20.9 µM
TGI [30]: 32.7 µM
TGI [31]: > 100 µM
TGI [32]: 12.9 µM
TGI [33]: 35.6 µM
TGI [34]: 5.24 µM
TGI [35]: 22.9 µM
TGI [36]: 13.5 µM
TGI [37]: 28.5 µM
TGI [38]: 31.2 µM
TGI [39]: 43.5 µM
TGI [40]: 36.2 µM
TGI [41]: 26.2 µM
TGI [42]: 7.89 µM
TGI [43]: 4.68 µM
TGI [44]: 10 µM
TGI [45]: 17.8 µM
TGI [57]: 22.8 µM
TGI [46]: 14.2 µM
TGI [48]: 33 µM
TGI [58]: 20.2 µM
TGI [49]: 42.6 µM
TGI [50]: 37.2 µM
TGI [51]: > 48.6 µM

NS(=O)(=O)c1ccc(/C=C/c2cccc(O)c2)cc1
GI50 [59]: 12.2 µM
TGI [59]: 44.4 µM
TGI [1]: > 100 µM
GI50 [53]: 43.4 µM
TGI [53]: > 100 µM
TGI [2]: > 100 µM
GI50 [3]: 25.8 µM
TGI [3]: > 100 µM
GI50 [4]: 22.8 µM
TGI [4]: > 100 µM
TGI [5]: 93.7 µM
GI50 [6]: 27.8 µM
TGI [6]: > 100 µM
TGI [7]: > 100 µM
TGI [54]: 99 µM
TGI [8]: > 100 µM
GI50 [55]: 18.9 µM
TGI [55]: 57.7 µM
TGI [9]: > 100 µM
TGI [10]: > 100 µM
GI50 [11]: 17.8 µM
TGI [11]: > 100 µM
GI50 [12]: 18.6 µM
TGI [12]: 50.4 µM
GI50 [13]: 30.2 µM
TGI [13]: > 100 µM
TGI [14]: > 100 µM
TGI [15]: 45.9 µM
GI50 [16]: 25.8 µM
TGI [16]: 74.3 µM
GI50 [17]: 35.4 µM
TGI [17]: > 100 µM
TGI [18]: > 100 µM
GI50 [19]: 50.2 µM
TGI [19]: > 100 µM
TGI [20]: > 100 µM
TGI [21]: > 100 µM
TGI [22]: > 100 µM
TGI [23]: 87.4 µM
TGI [24]: > 100 µM
TGI [25]: > 100 µM
TGI [26]: > 100 µM
TGI [27]: > 100 µM
GI50 [28]: 61 µM
TGI [28]: > 100 µM
GI50 [29]: 20 µM
TGI [29]: > 100 µM
TGI [30]: > 100 µM
TGI [31]: > 100 µM
TGI [32]: 80.4 µM
GI50 [33]: 46.1 µM
TGI [33]: > 100 µM
GI50 [34]: 43 µM
TGI [34]: > 100 µM
GI50 [35]: 36.7 µM
TGI [35]: > 100 µM
TGI [36]: > 100 µM
TGI [37]: > 100 µM
TGI [38]: 78.2 µM
TGI [39]: 48.4 µM
GI50 [40]: 19.8 µM
TGI [40]: > 100 µM
GI50 [41]: 25.8 µM
TGI [41]: 99.6 µM
GI50 [42]: 17.4 µM
TGI [42]: 65.9 µM
GI50 [43]: 16.1 µM
TGI [43]: > 100 µM
GI50 [44]: 43.3 µM
TGI [44]: > 100 µM
GI50 [45]: 65.6 µM
TGI [45]: > 100 µM
TGI [57]: 64.2 µM
GI50 [46]: 25.2 µM
TGI [46]: 58.7 µM
GI50 [47]: 41.4 µM
TGI [47]: > 100 µM
TGI [48]: > 100 µM
GI50 [58]: 21.1 µM
TGI [58]: > 100 µM
TGI [49]: > 100 µM
TGI [50]: > 100 µM
TGI [51]: > 100 µM
TGI [52]: > 100 µM

C/C(=C\CCC1=CC(=O)OC1)CC[C@@H]1[C@H]2C(=O)CC(C)[C@@]3(C)CC[C@]1(C)[C@@]23C (stereo partly specified)
TGI [53]: > 10 µM
TGI [4]: > 10 µM
TGI [5]: > 10 µM
TGI [7]: > 10 µM
TGI [54]: > 10 µM
TGI [55]: > 10 µM
TGI [9]: > 10 µM
TGI [10]: > 10 µM
TGI [11]: > 10 µM
TGI [12]: > 10 µM
TGI [13]: > 10 µM
TGI [14]: > 10 µM
TGI [15]: > 10 µM
TGI [17]: > 10 µM
TGI [19]: > 10 µM
TGI [20]: > 10 µM
TGI [21]: > 10 µM
TGI [22]: > 10 µM
TGI [23]: > 10 µM
TGI [24]: > 10 µM
TGI [25]: > 10 µM
TGI [26]: > 10 µM
TGI [27]: > 10 µM
TGI [29]: > 10 µM
TGI [30]: > 10 µM
TGI [31]: > 10 µM
TGI [33]: > 10 µM
TGI [34]: > 10 µM
TGI [36]: > 10 µM
TGI [37]: > 10 µM
TGI [39]: > 10 µM
TGI [40]: > 10 µM
TGI [43]: > 10 µM
TGI [44]: > 10 µM
TGI [45]: > 10 µM
TGI [46]: > 10 µM
TGI [47]: > 10 µM
TGI [50]: > 10 µM
TGI [51]: > 10 µM
TGI [52]: > 10 µM
